Tests used:
Neuraminidase [1] = target: T1, Neuraminidase (Influenza A virus, UniProt B4URF0); assay: Inhibition of Influenza A virus H1N1 A/duck/China/QJ/01 neuraminidase N1 using 4-MU-NANA as substrate after 5 mins by fluorescence assay
Neuraminidase [2] = target: T1, Neuraminidase; assay: Inhibition of Influenza A virus (A/chicken/Sandong/Li/2008(H9N2)) neuraminidase N2 using 4-MU-NANA as substrate after 5 mins by fluorescence assay
[3] = Cytotoxicity against chicken embryo fibroblast after 2 days by MTS assay; assay type: cell-based, Gallus gallus; settings: chicken embryo fibroblasts
Influenza A virus = assay: Antiviral activity against Influenza A virus (A/chicken/Sandong/Li/2008(H9N2)) infected in chicken embryo fibroblast assessed as protection against virus-induced cytopathic effect after 2 days by MTS assay; assay type: functional, organism-based; settings: 48 h
Neuraminidase [4] = target: T1, Neuraminidase; assay: Non-competitive inhibition of Influenza A virus (A/chicken/Sandong/Li/2008(H9N2)) neuraminidase N2 using 4-MU-NANA as substrate by Lineweaver-Burk plot analysis
Neuraminidase [5] = target: T1, Neuraminidase; assay: Inhibition of Influenza A virus H9N2 neuraminidase
[6] = target: Neuraminidase (Influenza A virus) (UniProt B4URF0); assay: Inhibition of Influenza A virus H1N1 A/duck/China/QJ/01 neuraminidase N1 using 4-MU-NANA as substrate at 100 uM after 5 mins by fluorescence assay
Neuraminidase [7] = target: T1, Neuraminidase; assay: Inhibition of Influenza A virus H1N1 neuraminidase

Row | SMILES | IC50 (Neuraminidase [1]) [µM] | IC50 (Neuraminidase [2]) [µM] | CC50 at 48 h [3] [µM] | further results
1 | O=C(/C=C/c1ccc(O)c(O)c1)N[C@@H](Cc1ccccc1)C(=O)O | 37.4 | 39.6 | – | –
2 | CC(C)(C)OC(=O)N[C@@H](CCCNC(=O)/C=C/c1ccc(O)c(O)c1)C(=O)O | 34.7 | 33.6 | – | –
3 | O=C(/C=C/c1ccc(O)c(O)c1)Nc1ccc(O)c(NC(=O)C2CC2)c1 | 18.2 | 24.7 | – | –
4 | O=C(O)COc1ccc(NC(=O)/C=C/c2ccc(O)c(O)c2)cc1NC(=O)C1CC1 | 13.8 | 16.5 | 86.7 | –
5 | O=C(/C=C/c1ccc(O)c(O)c1)NCCC[C@H](NC(=O)c1ccccc1)C(=O)O | 34.3 | 37.2 | – | –
6 | CC(C)C(=O)Nc1cc(NC(=O)/C=C/c2ccc(O)c(O)c2)ccc1OCC(=O)O | 11.6 | 13 | 94.3 | –
7 | CCC(CC)C(=O)Nc1cc(NC(=O)/C=C/c2ccc(O)c(O)c2)ccc1O | 22.8 | 20.7 | > 100 | EC50 (Influenza A virus): 22.6 µM
8 | CCC(CC)C(=O)N[C@@H](CCCNC(=O)/C=C/c1ccc(O)c(O)c1)C(=O)O | 39.2 | 44.2 | – | –
9 | O=C(/C=C/c1ccc(O)c(O)c1)N[C@@H](Cc1c[nH]c2ccccc12)C(=O)O | 30.1 | 27.2 | 89.5 | EC50 (Influenza A virus): > 100 µM
10 | CCC(CC)C(=O)Nc1cc(NC(=O)/C=C/c2ccc(O)c(O)c2)ccc1OCC(=O)O | 8.5 | 7.2 | > 100 | EC50 (Influenza A virus): 31.2 µM; Ki (Neuraminidase [4]): 11.5 µM
11 | CC(=O)Nc1cc(NC(=O)/C=C/c2ccc(O)c(O)c2)ccc1OCC(=O)O | 12.2 | 15.4 | 60.4 | –
12 | CCC(=O)N[C@@H](CCCNC(=O)/C=C/c1ccc(O)c(O)c1)C(=O)O | 31.3 | 37.9 | – | –
13 | O=C(/C=C/c1ccc(O)c(O)c1)CC(=O)/C=C/c1ccc(O)c(O)c1 | – | – | – | IC50 (Neuraminidase [5]): 63.8 µM
14 | O=C(/C=C/c1ccc(O)c(O)c1)NCCC[C@H](NC(=O)Cc1ccccc1)C(=O)O | 30.2 | 28.1 | 87.7 | –
15 | O=C(/C=C/c1ccccc1)Nc1ccc(O)c(NC(=O)C2CC2)c1 | – | – | – | inhibition [6]: 42.6%
16 | COc1cc(O)ccc1C(=O)/C=C/c1ccc(O)cc1 | – | – | – | IC50 (Neuraminidase [7]): 24.3 µM
17 | CCOC(=O)C1=C[C@@H](OC(CC)CC)[C@H](NC(C)=O)[C@@H](N)C1 [OSELTAMIVIR] | – | – | > 10 | EC50 (Influenza A virus): 0.5 µM
18 | CCC(=O)Nc1cc(NC(=O)/C=C/c2ccc(O)c(O)c2)ccc1O | 17.6 | 23.6 | > 100 | EC50 (Influenza A virus): 58.6 µM
19 | CCC(CC)C(=O)Nc1cc(NC(=O)/C=C/c2ccccc2)ccc1O | – | – | – | inhibition [6]: 45.2%
20 | O=C(O)CCNC(=O)/C=C/c1ccc(O)c(O)c1 | 27.3 | 13.5 | > 100 | EC50 (Influenza A virus): > 100 µM
21 | CCC(=O)Nc1cc(NC(=O)/C=C/c2ccccc2)ccc1O | – | – | – | inhibition [6]: 42.9%
22 | CC(C)C(=O)Nc1cc(NC(=O)/C=C/c2ccccc2)ccc1O | – | – | – | inhibition [6]: 47.2%
23 | CC(=O)Nc1cc(NC(=O)/C=C/c2ccccc2)ccc1O | – | – | – | inhibition [6]: 40.2%
24 | O=C(O)CCCNC(=O)/C=C/c1ccc(O)c(O)c1 | 27.7 | 16.8 | – | –
25 | O=C(O)CNC(=O)/C=C/c1ccc(O)c(O)c1 | 49.5 | 43.3 | – | –
26 | CC(=O)Nc1cc(NC(=O)/C=C/c2ccc(O)c(O)c2)ccc1O | 17.7 | 27.4 | 78.2 | –
27 | CC(C)C(=O)Nc1cc(NC(=O)/C=C/c2ccc(O)c(O)c2)ccc1O | 19 | 20.4 | – | –
28 | O=C(/C=C/c1ccc(O)cc1)CC(=O)/C=C/c1ccc(O)c(O)c1 | – | – | – | IC50 (Neuraminidase [5]): 64.1 µM
29 | CC(C)C(=O)N[C@@H](CCCNC(=O)/C=C/c1ccc(O)c(O)c1)C(=O)O | 31.9 | 30.3 | 65 | –
30 | CC(C)[C@H](NC(=O)/C=C/c1ccc(O)c(O)c1)C(=O)O | 38.3 | 37.3 | – | –

— ChEMBL document CHEMBL2390861, “Caffeic acid derivatives: a new type of influenza neuraminidase inhibitors” (Bioorg Med Chem Lett, 2013)
